Tests used:
PI3Kδ (p110δ/p85α) = biological target: T1, PI3Kδ (p110δ/p85α) (Homo sapiens, UniProt O00329); test: PI3K biochemical enzyme assay (Adapta universal kinase assay), p110 delta/p85 alpha; conditions: for inhibition at 0.1 µM / inhibition at 1 µM / inhibition at 10 µM: read-out: PI3Kδ % inhib; for IC50: Table 2, PI3k biochemical assays, read-out: p110δ/p85α IC50
T1 construct: purchased Invitrogen
Description: This example describes a method of obtaining in vitro activity data concerning the effect of compounds of on various PI3K isoforms. The effect of compounds on the kinase activity of Class I PI3Ks was measured at Invitrogen by using the Adapta® universal kinase assay. It was a homogenous, fluorescent based immunoassay for the detection of ADP produced by the kinase reaction. This assay can be divided into two phases: a kinase reaction phase, and an ADP detection phase. In the kinase reaction phase, all components required for the kinase reaction were added to the well, and the reaction was allowed to incubate for 60 minutes. After the reaction, a detection solution consisting of a europium labeled anti-ADP antibody, an Alexa Fluor® 647 labeled ADP tracer, and EDTA (to stop the kinase reaction) was added to the assay well. ADP formed by the kinase reaction (in the absence of an inhibitor) displaced the Alexa Fluor® 647 labeled ADP tracer from the antibody, resulting in a decrease in the TR-FRET signal.
ADP formation was determined by calculating the emission ratio from the assay well. The emission ratio was calculated by dividing the intensity of the tracer (acceptor) emission by the intensity of the Eu (donor) emission at 615 nm as shown in the equation below.
The Test Compounds were screened in 1% DMSO (final) in the well. All Substrate/Kinase Mixtures were diluted to a 2× working concentration in the appropriate Kinase Buffer as described below for the individual kinase:
The 2× p110 delta/p85 alpha/PIP2:PS mixture was prepared in 50 mM HEPES pH 7.5, 100 mM NaCl, 0.03% CHAPS, 3 mM mgCl2, 1 mM EGTA. The final 10 μL Kinase Reaction consisted of 0.35-2.6 ng p110 delta/p85 alpha and 50 μM PIP2:PS in 32.5 mM HEPES pH 7.5, 50 mM NaCl, 0.015% CHAPS, 1.5 mM mgCl2, 0.5 mM EGTA. After the 1 hour Kinase Reaction incubation, […] of Detection Mix was added.
The Detection mix consisted of EDTA (30 mM), Eu-anti-ADP antibody (30 nM) and ADP tracer. All ATP Solutions were diluted to a 4× working concentration in water and used at the Km apparent concentrations for each individual kinase.

PI3Kα = biological target: T2, PI3Kα (Mus musculus, UniProt P42337); test: PI3Kα-dependent cell-based assay: PDGF-BB mediated AKT phosphorylation in Swiss-3T3 cells; conditions: PDGF-BB-induced AKT phosphorylation, Swiss-3T3 fibroblasts
T2 construct: endogenous in cells; host or cells: Swiss-3T3 fibroblasts (ATCC)
Description: PDGF-BB-induced AKT phosphorylation in Swiss-3T3 fibroblasts is mediated by p110α. C5a-induced AKT phosphorylation in RAW-264 murine macrophages is mediated exclusively by p110γ.
PI3Kα-Dependent Cell-Based Assay: PDGF-BB Mediated AKT Phosphorylation in Swiss-3T3 Cells
Swiss-3T3 fibroblasts (American Type Culture Collection) were cultured with DMEM containing 10% fetal bovine serum and the antibiotics penicillin and streptomycin. Cells were seeded on a 96-well Tissue Culture Plate at 25,000 cells/well and allowed to reach at least 90% confluency. The cells were starved for 2 to 12 hr in 0.1% FBS containing medium and then were pretreated with inhibitors or DMSO for 2 hr. The cells were stimulated for 15 min with 10 ng/ml PDGF-BB (Cell Signaling Technology) at 37° C. in 5% CO2. The culture medium was removed and cells were fixed for 20 min at room temperature by addition of 100 μl of 4% cell fixing buffer to each well. AKT phosphorylation and total AKT was detected by ELISA.
Detection of Phospho-Ser-473 AKT and Total AKT by ELISA
The fixed cells were washed twice with 150 μl of wash buffer (WB) and quenched by incubating with 100 μl of Quenching Buffer for 20 min at room temperature. Cells were washed once with 150 μl WB and blocked by incubating with 100 μl of Blocking Buffer for 1 hr at room temperature. Cells were incubated with 50 μl of primary antibody diluted in Blocking Buffer, either phospho-Ser-473 AKT specific (1:150 dilution) or total-AKT antibody (1:200 dilution), to each specific well. The negative control wells contained 50 μl of Blocking Buffer. Plates were sealed with plate sealing film and incubated overnight at 4° C. Cells were washed twice with 150 μl WB followed by addition of 50 μl per well of DELFIA secondary antibody (50 ng/well, diluted in DELFIA Assay Buffer). After 2 hr incubation at room temperature, cells were washed 4 times with 150 μl of Europium Wash Solution followed by addition of 100 μl of DELFIA Enhancing Solution to each well. Plates were incubated for 5 min in the dark and fluorescent signal was read using SpectraMax M5™ (Molecular Devices). Total AKT level was determined to verify equal cell number per well. The average background fluorescence values from wells that received vehicle control in the absence of PDGF-BB or C5a were subtracted from all the values of experimental conditions. Fluorescence values corresponding to phosphorylated AKT from wells that received PDGF-BB or C5a were normalized to 100% and compound effect was plotted as % change relative to the vehicle control.

T2 sequence (P42337 whole entry): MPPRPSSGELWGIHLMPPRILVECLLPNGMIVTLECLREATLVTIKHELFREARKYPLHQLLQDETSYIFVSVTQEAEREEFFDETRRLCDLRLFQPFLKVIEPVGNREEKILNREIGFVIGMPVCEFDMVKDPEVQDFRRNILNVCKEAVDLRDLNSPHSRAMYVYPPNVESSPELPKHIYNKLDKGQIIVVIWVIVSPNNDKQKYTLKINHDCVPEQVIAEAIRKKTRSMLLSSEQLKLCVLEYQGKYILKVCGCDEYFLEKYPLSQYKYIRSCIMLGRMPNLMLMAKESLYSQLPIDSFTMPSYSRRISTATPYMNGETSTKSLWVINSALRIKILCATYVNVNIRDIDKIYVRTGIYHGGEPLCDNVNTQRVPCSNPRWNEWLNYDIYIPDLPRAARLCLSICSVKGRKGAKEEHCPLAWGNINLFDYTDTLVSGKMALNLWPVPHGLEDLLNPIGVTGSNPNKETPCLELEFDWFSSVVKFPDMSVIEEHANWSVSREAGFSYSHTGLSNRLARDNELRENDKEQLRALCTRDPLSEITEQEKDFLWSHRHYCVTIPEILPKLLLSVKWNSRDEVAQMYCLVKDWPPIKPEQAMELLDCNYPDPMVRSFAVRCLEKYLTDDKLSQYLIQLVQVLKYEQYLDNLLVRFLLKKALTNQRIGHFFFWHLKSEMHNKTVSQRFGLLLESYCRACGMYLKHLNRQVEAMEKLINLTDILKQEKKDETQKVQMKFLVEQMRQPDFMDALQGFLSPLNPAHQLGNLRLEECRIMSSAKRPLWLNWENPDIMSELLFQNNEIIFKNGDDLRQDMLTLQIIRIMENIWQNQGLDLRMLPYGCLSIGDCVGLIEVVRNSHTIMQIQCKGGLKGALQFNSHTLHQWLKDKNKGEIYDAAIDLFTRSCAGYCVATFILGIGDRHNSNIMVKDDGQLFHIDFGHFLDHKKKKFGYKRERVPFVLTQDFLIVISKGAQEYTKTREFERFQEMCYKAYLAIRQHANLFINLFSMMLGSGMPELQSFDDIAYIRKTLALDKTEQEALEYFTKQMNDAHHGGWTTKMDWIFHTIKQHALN
T2 sequence (P26450 whole entry partner): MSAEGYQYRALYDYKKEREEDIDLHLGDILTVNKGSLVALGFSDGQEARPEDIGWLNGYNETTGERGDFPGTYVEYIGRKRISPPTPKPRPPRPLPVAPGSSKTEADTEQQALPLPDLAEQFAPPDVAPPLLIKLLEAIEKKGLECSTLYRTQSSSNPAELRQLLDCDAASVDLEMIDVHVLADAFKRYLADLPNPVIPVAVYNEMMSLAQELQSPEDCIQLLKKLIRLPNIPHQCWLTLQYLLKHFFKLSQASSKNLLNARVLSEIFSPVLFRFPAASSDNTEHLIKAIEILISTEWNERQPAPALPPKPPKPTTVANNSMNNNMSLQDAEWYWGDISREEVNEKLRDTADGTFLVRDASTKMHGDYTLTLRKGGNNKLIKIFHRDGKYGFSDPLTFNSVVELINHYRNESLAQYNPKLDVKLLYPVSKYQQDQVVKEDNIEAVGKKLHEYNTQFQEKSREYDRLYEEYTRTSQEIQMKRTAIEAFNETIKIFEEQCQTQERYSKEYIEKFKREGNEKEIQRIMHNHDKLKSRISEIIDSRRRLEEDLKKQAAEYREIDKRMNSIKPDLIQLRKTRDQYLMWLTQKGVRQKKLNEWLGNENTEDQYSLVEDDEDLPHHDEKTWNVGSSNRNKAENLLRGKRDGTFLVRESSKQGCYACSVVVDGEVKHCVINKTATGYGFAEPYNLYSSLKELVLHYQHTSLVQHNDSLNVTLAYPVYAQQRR
T1 sequence (O00329 whole entry): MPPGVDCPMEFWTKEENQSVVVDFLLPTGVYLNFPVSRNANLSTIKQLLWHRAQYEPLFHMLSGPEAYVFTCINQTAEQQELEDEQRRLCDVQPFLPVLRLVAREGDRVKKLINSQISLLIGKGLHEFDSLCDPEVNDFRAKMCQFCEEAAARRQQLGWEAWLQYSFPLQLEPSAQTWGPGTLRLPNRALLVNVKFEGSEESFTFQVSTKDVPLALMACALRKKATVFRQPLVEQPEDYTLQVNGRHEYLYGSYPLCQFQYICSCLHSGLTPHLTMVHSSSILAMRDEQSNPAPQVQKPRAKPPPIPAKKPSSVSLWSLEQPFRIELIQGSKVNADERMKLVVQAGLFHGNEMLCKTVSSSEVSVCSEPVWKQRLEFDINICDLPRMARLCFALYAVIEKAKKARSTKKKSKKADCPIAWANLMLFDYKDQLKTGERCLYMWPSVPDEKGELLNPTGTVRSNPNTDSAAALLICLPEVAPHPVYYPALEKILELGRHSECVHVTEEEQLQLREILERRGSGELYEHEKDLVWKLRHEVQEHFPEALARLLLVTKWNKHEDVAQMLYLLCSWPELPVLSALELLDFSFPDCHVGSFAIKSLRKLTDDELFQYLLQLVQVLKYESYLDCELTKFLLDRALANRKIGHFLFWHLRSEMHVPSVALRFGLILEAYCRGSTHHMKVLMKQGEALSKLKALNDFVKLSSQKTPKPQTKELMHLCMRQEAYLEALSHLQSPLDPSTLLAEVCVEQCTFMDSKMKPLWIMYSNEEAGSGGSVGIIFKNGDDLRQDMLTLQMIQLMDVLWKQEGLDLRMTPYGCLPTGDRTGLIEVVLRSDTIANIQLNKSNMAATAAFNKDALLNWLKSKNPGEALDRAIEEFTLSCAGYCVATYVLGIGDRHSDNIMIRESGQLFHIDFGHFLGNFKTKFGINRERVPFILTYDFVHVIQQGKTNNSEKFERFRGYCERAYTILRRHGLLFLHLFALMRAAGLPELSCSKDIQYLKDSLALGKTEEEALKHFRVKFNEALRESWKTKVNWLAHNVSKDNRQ
T1 sequence (P27986 whole entry partner): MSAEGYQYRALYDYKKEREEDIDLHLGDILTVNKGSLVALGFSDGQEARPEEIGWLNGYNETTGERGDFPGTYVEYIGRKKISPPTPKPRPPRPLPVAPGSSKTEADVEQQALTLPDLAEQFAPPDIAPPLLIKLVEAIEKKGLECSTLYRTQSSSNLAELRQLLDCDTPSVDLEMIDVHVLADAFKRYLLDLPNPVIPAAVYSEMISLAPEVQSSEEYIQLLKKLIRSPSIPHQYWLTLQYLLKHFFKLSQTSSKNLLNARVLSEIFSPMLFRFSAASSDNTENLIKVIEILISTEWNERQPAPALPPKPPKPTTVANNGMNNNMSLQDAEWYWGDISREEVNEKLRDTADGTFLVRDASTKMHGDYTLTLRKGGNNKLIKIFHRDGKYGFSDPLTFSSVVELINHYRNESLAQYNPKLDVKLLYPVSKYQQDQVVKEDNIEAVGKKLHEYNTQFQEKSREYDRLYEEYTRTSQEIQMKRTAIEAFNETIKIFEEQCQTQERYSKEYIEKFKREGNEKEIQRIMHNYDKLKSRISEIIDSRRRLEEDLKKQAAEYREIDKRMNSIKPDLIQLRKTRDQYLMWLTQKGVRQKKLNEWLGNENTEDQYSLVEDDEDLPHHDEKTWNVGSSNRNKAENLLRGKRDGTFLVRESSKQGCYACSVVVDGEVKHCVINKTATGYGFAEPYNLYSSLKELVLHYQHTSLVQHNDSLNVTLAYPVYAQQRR

Row | SMILES | inhibition at 0.1 µM (PI3Kδ (p110δ/p85α)) [%] | inhibition at 1 µM (PI3Kδ (p110δ/p85α)) [%] | inhibition at 10 µM (PI3Kδ (p110δ/p85α)) [%] | IC50 (PI3Kδ (p110δ/p85α)) [µM] | EC50 (PI3Kα) [µM]
1 | CC(Nc1ncnc2[nH]cnc12)c1nc2ccccc2nc1-c1ccccc1 (stereo not shown) [Compound Q1] | 74 | 85 | 100 | 0.014 | > 20
2 | Cc1cccc2nc(C(C)Nc3nc(N)nc4[nH]cnc34)c(-c3ccc(F)cc3)nc12 (stereo not shown) [Compound Q5] |  | 69 | 99 | 0.002 | 14.3
3 | CC(Nc1ncnc2[nH]cnc12)c1nc2ccccc2nc1-c1cc(F)cc(F)c1 (stereo not shown) [Compound Q2, N-{1-[3-(3,5-difluorophenyl)quinoxalin-2-yl]ethyl}-9H-purin-6-amine] | 20 | 82 | 100 | 0.058 | > 20
4 | CCC(Nc1ncnc2[nH]cnc12)c1nc2cccc(F)c2nc1-c1ccccc1 (stereo not shown) [Compound Q9] | 72 | 86 | 100 | 0.037 | > 20
5 | Cc1cccc2nc(C(C)Nc3nc(N)nc4[nH]cnc34)c(-c3ccccc3)nc12 (stereo not shown) [Compound Q4] | 77 | 86 | 100 | 0.002 | 17.7
6 | Cc1cccc(-c2nc3ccccc3nc2C(C)Nc2ncnc3[nH]cnc23)c1 (stereo not shown) [Compound Q3] | 48 | 86 | 100 | 0.036 | > 20
7 | CCC(Nc1ncnc2[nH]cnc12)c1nc2ccccc2nc1-c1ccccc1 (stereo not shown) [Compound Q12] | 71 | 83 | 100 | 0.017 | > 20

— patent publication US20140235643A1, “NOVEL QUINOXALINE INHIBITORS OF PI3K” (GILEAD CALISTOGA LLC, priority 2011, published 2014)
